The values below come from patent US9669028B2, “Substituted 5-(pyrazin-2-yl)-1H-pyrazolo [3, 4-B] pyridine and pyrazolo [3, 4-B] pyridine derivatives as protein kinase inhibitors” (Arrien Pharmaceuticals LLC, priority 2011, dated 2017).

Data set [1] deals with MPTP-injected C57 black mice. Put plainly: MPTP mouse model of Parkinson's disease, oral pre-treatment. Format: in vivo. Conditions: for protection against MPTP-induced TH cell loss and dopaminergic degeneration in substantia nigra and striatum: 10 mg/kg and 30 mg/kg oral; for locomotor activities in MPTP-injected mice / striatal dopamine levels in MPTP treated mice: orally administered, pre-treatment.

A further data set deals with LRRK2 (Homo sapiens (Human), UniProt Q5S007). The data set is described as follows: LRRK2 Kinase Assay. Format: biochemical. Particulars: 10 μM ATP. A digest of the protocol: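 Radiometric filter-binding assay: compound pre-incubated ~20 min with kinase and substrate peptide in 20 mM HEPES pH 7.5, 10 mM MgCl2, 1% DMSO, then 10 μM ATP with 33P-ATP added.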
LRRK2, sequence (Q5S007 970-2527): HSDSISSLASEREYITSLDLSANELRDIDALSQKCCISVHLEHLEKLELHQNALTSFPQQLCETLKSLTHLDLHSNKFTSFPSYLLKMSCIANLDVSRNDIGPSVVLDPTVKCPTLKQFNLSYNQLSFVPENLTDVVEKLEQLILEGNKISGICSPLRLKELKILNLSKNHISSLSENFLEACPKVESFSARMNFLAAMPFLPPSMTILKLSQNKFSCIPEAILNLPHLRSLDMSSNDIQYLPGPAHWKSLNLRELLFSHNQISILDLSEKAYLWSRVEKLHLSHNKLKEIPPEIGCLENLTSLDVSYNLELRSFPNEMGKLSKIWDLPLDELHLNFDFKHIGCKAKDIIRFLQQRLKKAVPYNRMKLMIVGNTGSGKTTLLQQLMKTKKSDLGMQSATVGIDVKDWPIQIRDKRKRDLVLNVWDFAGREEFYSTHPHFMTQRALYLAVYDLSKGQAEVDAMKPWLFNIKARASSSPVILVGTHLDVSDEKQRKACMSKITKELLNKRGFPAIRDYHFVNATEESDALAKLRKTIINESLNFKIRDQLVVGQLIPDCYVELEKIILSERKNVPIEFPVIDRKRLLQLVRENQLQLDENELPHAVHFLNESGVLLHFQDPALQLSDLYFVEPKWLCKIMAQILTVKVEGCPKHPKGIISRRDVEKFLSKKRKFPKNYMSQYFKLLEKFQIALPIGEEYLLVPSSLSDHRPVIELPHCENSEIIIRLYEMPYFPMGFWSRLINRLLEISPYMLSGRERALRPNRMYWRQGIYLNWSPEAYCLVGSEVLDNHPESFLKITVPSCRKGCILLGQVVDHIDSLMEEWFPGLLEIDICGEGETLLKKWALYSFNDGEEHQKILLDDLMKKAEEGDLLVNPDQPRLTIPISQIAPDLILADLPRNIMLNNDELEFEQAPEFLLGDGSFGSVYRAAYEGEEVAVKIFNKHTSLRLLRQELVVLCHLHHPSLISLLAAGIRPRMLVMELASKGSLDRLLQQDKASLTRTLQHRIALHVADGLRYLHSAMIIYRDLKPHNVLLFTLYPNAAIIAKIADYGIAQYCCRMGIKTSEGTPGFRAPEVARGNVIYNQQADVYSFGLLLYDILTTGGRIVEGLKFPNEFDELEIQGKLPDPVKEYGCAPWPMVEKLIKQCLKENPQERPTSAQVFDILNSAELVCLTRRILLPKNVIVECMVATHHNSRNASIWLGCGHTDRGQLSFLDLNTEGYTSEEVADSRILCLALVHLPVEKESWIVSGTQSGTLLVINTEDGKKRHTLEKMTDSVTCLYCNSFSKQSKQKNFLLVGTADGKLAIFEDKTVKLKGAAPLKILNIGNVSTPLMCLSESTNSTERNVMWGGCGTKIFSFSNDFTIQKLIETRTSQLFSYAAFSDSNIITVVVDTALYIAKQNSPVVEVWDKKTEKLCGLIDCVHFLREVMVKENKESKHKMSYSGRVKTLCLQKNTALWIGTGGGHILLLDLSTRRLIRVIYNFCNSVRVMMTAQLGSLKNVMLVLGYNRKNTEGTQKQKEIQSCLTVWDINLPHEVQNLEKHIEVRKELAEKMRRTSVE
Another data set in a line: in vivo. Conditions: male, Sprague Dawley, rat. The source says: To investigate the pharmacokinetic profiles of test compound following intravenous bolus administration and oral gavage in male Sprague Dawley rats.
The next data set concerns the target LRRK2 G2019S (Homo sapiens (Human), UniProt Q5S007, G2019S). The data set is described as follows: LRRK2 G2019S Kinase Assay. Format: biochemical. Particulars: 10 μM ATP. The method in brief: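 Radiometric filter-binding assay: enzyme, substrate peptide and compound were mixed on ice, ATP added, then incubated 20 min at 30° C. Reaction was stopped with phosphoric acid and the peptide captured on filters. Incorporated radioactivity was read by scintillation counting; staurosporine served as reference.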

Data set [2] concerns 299 protein kinases+17 additional preview kinases. Put plainly: Protein Kinase Selectivity Profiler. Format: biochemical, human. Conditions: LRRK2, LRRK2 G2019S, CHK1, DYRK1A, FLT3, MLK1, TNIK, TRKA; single dose 0.5 μM, 1 μM; 10 μM ATP. As to the method:
In vitro profiling of the 317 member kinase panel was performed at Reaction Biology Corporation using the “HotSpot” assay platform. Briefly, specific kinase/substrate pairs along with required cofactors were prepared in reaction buffer; 20 mM Hepes (pH 7.5), 10 mM MgCl2, 1 mM EGTA, 0.02% Brij35, 0.02 mg/ml BSA, 0.1 mM Na3VO4, 2 mM DTT, 1% DMSO. Compounds were delivered into the reaction, followed ˜20 min later by addition of a mixture of ATP (Sigma) and 33P ATP (PerkinElmer) to a final concentration of 10 μM. Reactions were carried out at 25° C. for 120 min, followed by spotting of the reactions onto P81 ion exchange filter paper (Whatman). Unbound phosphate was removed by extensive washing of filters in 0.75% phosphoric acid. […] IC50 values and curve fits were obtained using Prism (GraphPad Software). Kinome tree representations were prepared using Kinome Mapper (http://www.reactionbiology.com/apps/kinome/mapper/Launch Kinome.htm). Specifically for the LRRK2 enzyme the substrate LRRKtide (gene bank and protein access numbers NP_940980.2 Q5S007) and clone aa 970-2527 expressed in baculovirus in insect cells with N-terminal GST tag was employed in the study protocol. In the case of DYRK1A (SEQ ID NO 16) the substrate casein (gene bank and protein access numbers NP_001387 Q13627) full length clone expressed in insect with n-terminal tag was used.
A control compound was tested in 10-dose IC50 mode with 3-fold serial dilution starting at 20 μM. Reactions were carried out at 10 μM ATP. Data pages include raw data, % Enzyme activity (relative to DMSO controls), and curve fits.

Another data set deals with DYRK1A (Homo sapiens (Human), UniProt Q13627). The data set is described as follows: In vitro DYRK1A inhibition assay. Format: biochemical. As to the method: Briefly, specific kinase/substrate pairs along with required cofactors were prepared in reaction buffer; 20 mM Hepes (pH 7.5), 10 mM MgCl2, 1 mM EGTA, 0.02% Brij35, 0.02 mg/ml BSA, 0.1 mM Na3VO4, 2 mM DTT, 1% DMSO. Compounds were delivered into the reaction, followed ˜20 min later by addition of a mixture of ATP (Sigma) and 33P ATP (PerkinElmer) to a final concentration of 10 μM. […] IC50 values and curve fits were obtained using Prism (GraphPad Software). Kinome tree representations were prepared using Kinome Mapper (http://www.reactionbiology.com/apps/kinome/mapper/Launch Kinome.htm).
The 2×DYRK1A/Ser/Thr 18 mixture was prepared in 50 mM HEPES pH 7.5, 0.01% BRIJ-35, 10 mM MgCl2, 1 mM EGTA.

Data set [3] deals with MPTP-injected C57 black mice. Put plainly: MPTP mouse model, post-treatment study. The class given is in vivo. Particulars: post-administration, oral and i.v routes. The method, then:
32 C57 black mice (C57/bl6, 6-8 week old, 25-30 g) were purchased from Charles River Laboratories, Ohio. […] All animals were housed in Laboratory of Animal Resources vivarium at Iowa State University under standard conditions: constant temperature (22±1° C.), humidity (relative, 30%), and a 12-h light/dark cycle. Mice were allowed free access to food and water. Use of the animals and protocol procedures were approved and supervised by the Committee on Animal Care at Iowa State University (Ames, Iowa). Test compounds were dissolved in PBS for this study. Prior to treatment animals were pre-trained on rotarod for at least 3 minutes every day for three successive days. Group A animals were injected with saline (i.p.) to be used as controls. MPTP was dissolved in PBS and injected intraperitoneally (i.p.) at doses of 25 mg/kg, once daily for 5 days to group B, C and D animals. On day 4, prior to 4th MPTP injection, group C animals received test compounds (30 mg/kg, oral) daily for eight days. Similarly, on day 4, prior to 4th MPTP injection, group D animals received test compounds (5 mg/kg, i.v) daily for eight days. On day 9 (Post-test compounds administration) or day 12 (7 days post-MPTP), 4 animals/group were sacrificed, different brain regions including striatum and substantia nigra were dissected. Left striatum were used for neurochemical analysis. Other 4 animals/group were perfused and used for TH immunohistological studies.

In data set [4] the test system is MPTP-injected C57 black mice. The data set is described as follows: MPTP mouse model, intravenous pre-treatment. Format: in vivo. Conditions: 5 mg/kg i.v. The method, then: 24 C57 black mice (C57/bl6, 6-8 week old, and 25-30 g) were purchased from Charles River Laboratories, Ohio. […] Prior to treatment animals were pre-trained on rotarod for at least 3 minutes every day for three successive days. Test compound (5 mg/kg) was administered intravenously to group C animals, 24 h prior to MPTP-injection and continued daily for additional 11 days. MPTP was dissolved in PBS and injected intraperitoneally (i.p.) at doses of 25 mg/kg, once daily for 5 days to group B and C animals. Group A animals were injected with saline (i.p.) to be used as controls. Urine and Faeces were collected on Day 8, behavioural studies were performed on Day 9 (4-days post-MPTP). On day 12 (7 days post-MPTP), 4 animals/group were sacrificed, different brains regions including striatum and substantia nigra were dissected. Left striatum were used for neurochemical analysis. Other 4 animals/group were perfused and used for TH immunohistological studies.

The test system of data set [5] is Rat hepatoma (H4IIE) cell line. The data set is described as follows: In vitro toxicology, general cytotoxicity. The class given is cell-based. Conditions: 24 hrs. The method, then:
Cells were seeded into 96-well plates and cultured in medium containing 20% bovine serum. […] General cytotoxicity was evaluated by monitoring membrane integrity (MBR, cell supernatant), cell mass (PI) and mitochondrial function (cellular ATP levels). Rotenone was included as a positive control because it produces measurable effects in all three assays. DMSO at 0.5% in medium was included as a negative control. Three wells per exposure concentration were used in each assay. Results are summarized in Table 8 and are expressed as percent of control, with control values set at 100%. […] Test compounds 13 and 13 HCl were rank-ordered from most to least toxic based on individual membrane integrity and ATP responses as well as resultant TC50 values.
Test compounds 13 and 13 HCl were rank-ordered from highest to lowest probability of producing toxicity based first on membrane toxicity, then on ATP, and finally on cell mass (PI). It is important to note that within a given grouping compounds may be classified as to their primary effect being either cytotoxic, cytostatic, or reducing mitochondrial function. In general, compound responses above 80% of vehicle control are considered to be low-to-no effect, moderates generally rank 80% to 50% of vehicle control, and those compounds that cross the 50% mark are considered to have higher probability of toxicity.

Molecules are shown by their SMILES. ≈ marks a conversion by molar mass, not a printed value.

LRRK2 G2019S, sequence (Q5S007 970-2527 G2019S): as the sequence (Q5S007 970-2527) above, with G1050S counted along it

Broadly, the IC50 is the midpoint of a concentration-inhibition curve. High values mean a need for much substance, low ones inhibition by little substance. One may read the AUC(0-t) as the area under the concentration-time curve up to a stated or last time point. A lower AUC(0-t) goes with less exposure. For orientation: Vd means the apparent volume that relates the amount in the body to the concentration in plasma or blood. A higher Vd goes with wide distribution into tissue. In general, clearance refers to a measure of how efficiently the substance is removed, as volume per time. One may read the half-life as the time in which the quantity being followed falls by half. The low end stands for fast loss, the high end for slow loss. As a reminder, the Cmax is the peak of the concentration-time curve. One may read the Tmax as the time at which the peak concentration occurs. In the case of `Cc1n[nH]c2ncc(-c3cncc(N4CCOCC4)n3)cc12` [Compound 105, 4-(6-(3-methyl-1H-pyrazolo[3,4-b]pyridin-5-yl)pyrazin-2-yl)morpholine], in data set [1], the “protection against MPTP-induced TH cell loss and dopaminergic degeneration in substantia nigra and striatum” value is recorded as “dose-dependent protection”; the “locomotor activities in MPTP-injected mice” value is on record as “Improve Locomotor Activities”; the “striatal dopamine levels in MPTP treated mice” value is reported as “Restore Striatal Dopamine Levels”. Moreover, on LRRK2, the IC50 was less than 500 nM. In “in vivo” (iv, 5 mg/kg), this compound gave an AUC(0-t) of 1020 ng·h/mL, a distribution volume (Vd) of 15.2 L/kg, a clearance of 123 mL/min/kg and a half-life of 2.26 h. Moreover, in the data set “in vivo” (po, 30 mg/kg), the AUC(0-t) was found to be 1040 ng·h/mL, the peak concentration (Cmax) was 133 ng/mL, the F was found to be 24% and the Tmax was determined as 6.7 h. At LRRK2 G2019S, this compound registered an IC50 of less than 500 nM. The “% enzyme inhibition relative to DMSO controls” value in data set [2] is listed as 5-15%. This compound also showed an IC50 against DYRK1A of less than 500 nM. In data set [3], the “protection against MPTP-induced histological deficits” value was “significantly protected”, the “protection against MPTP-induced motor-deficits” value is “significantly protected” and the “protection against MPTP-induced neurochemical deficits” value was “not against neurochemical deficits”. The “protection against MPTP-induced TH neuronal loss in the substantia nigra and in the striatum” value in data set [4] was “Protect Against MPTP-Induced TH Neuronal Loss”.
`c1ccc2c(c1)CCN2c1cncc(-c2cnc3[nH]ccc3c2)n1` [Compound 134, 5-(6-(indolin-1-yl)pyrazin-2-yl)-1H-pyrrolo[2,3-b]pyridine]: in [1], the “protection against MPTP-induced TH cell loss and dopaminergic degeneration in substantia nigra and striatum” value was “dose-dependent protection”; the “locomotor activities in MPTP-injected mice” value is reported as “Improve Locomotor Activities”; the “striatal dopamine levels in MPTP treated mice” value is reported as “Restore Striatal Dopamine Levels”. At LRRK2, this compound returned an IC50 of less than 500 nM. In “in vivo” (iv, 5 mg/kg), this compound had an AUC(0-t) of 1020 ng·h/mL, a Vd of 15.2 L/kg, a clearance of 123 mL/min/kg and a half-life of 2.26 h. Moreover, in the data set “in vivo” (po, 30 mg/kg), the AUC(0-t) was determined as 1040 ng·h/mL, the peak level (Cmax) was 133 ng/mL, the F was found to be 24% and the Tmax came to 6.7 h. This compound displayed an IC50 against LRRK2 G2019S of less than 500 nM. The “% enzyme inhibition relative to DMSO controls” value in data set [2] is reported as 5-15%. This compound also had an IC50 at DYRK1A of less than 500 nM. In addition, the “protection against MPTP-induced TH neuronal loss in the substantia nigra and in the striatum” value in data set [4] was “Protect Against MPTP-Induced TH Neuronal Loss”.
What is called solubility is the dissolved amount per volume that the medium holds. Read a low solubility as a poorly soluble substance. On to `C=C(C)[C@H]1Cc2c(ccc3c2O[C@@H]2COc4cc(OC)c(OC)cc4[C@@H]2C3=O)O1` [Rotenone, reference compound], for which, in [5] (0.001 μM), the “ATP % Control” value is on record as 98%, the “Cell Mass % Control” value is recorded as 105% and the “Mem Tox % Control” value is 100%. Also, in data set [5] (0.1 μM), the “ATP % Control” value turned out to be 34%, the “Cell Mass % Control” value turned out to be 54% and the “Mem Tox % Control” value came to 98%. Also, in data set [5] (1 μM), the “ATP % Control” value was 4%, the “Cell Mass % Control” value is reported as 25% and the “Mem Tox % Control” value is listed as 46%. In data set [5], the “ATP TC50” value stood at 80 nM, the “Cell Mass TC50” value was 230 nM and the “Mem Tox TC50” value worked out at 930 nM. The same compound had a solubility in “physchem” of 1 µM (≈ 0.394 µg/mL).
